Assay results published in patent USRE41149E1, “Optically active pyridonecarboxylic acid derivatives” (Daiichi Sankyo Company, Limited, priority 1988, dated 2010).
Values after ≈ are worked out from the molar mass of the structure shown. Structures can show the parent of a compound that is named as a salt.

Tests used:
E. coli., NIHJ = assay: Antimicrobial activity (MIC), standard method of Nippon Kagakuryoho Gakkai; type: cell-based; conditions: for MIC: Escherichia coli
Procedure: (§1) Antimicrobial activity of the optically active compounds prepared in Examples was evaluated in accordance with the standard method specified by Nippon […], and results obtained are shown in Table 1 which precedes the claims herein in terms of minimum inhibitory concentration (MIC: […]).

Pr. vulgaris, 08601 = assay: as above; type: cell-based; conditions: for MIC: Proteus vulgaris
Procedure: as §1

Ps. aeruginosa, 32104 = assay: as above; type: cell-based; conditions: for MIC: Pseudomonas aeruginosa, 32104, Ps. aeruginosa; for Antimicrobial activity (MIC): Ps. aeruginosa
Procedure: as §1

Ps. aeruginosa, 32121 = assay: as above; type: cell-based; conditions: for MIC: Pseudomonas aeruginosa, 32121, Ps. aeruginosa; for Antimicrobial activity (MIC): Ps. aeruginosa
Procedure: as §1

S. aureus, 209 P = assay: as above; type: cell-based; conditions: for MIC: Staphylococcus aureus
Procedure: as §1

S. epidermidis, 56500 = assay: as above; type: cell-based; conditions: for MIC: Staphylococcus epidermidis, 56500, S. epidermidis; for Antimicrobial activity (MIC): S. epidermidis
Procedure: as §1

Ser. marcescens, 10100 = assay: as above; type: cell-based; conditions: for MIC: Serratia marcescens, 10100, Ser. marcescens; for Antimicrobial activity (MIC): Ser. marcescens
Procedure: as §1

[1] = tested on: Str. faecalis, ATCC 19433; assay: as above; type: cell-based; conditions: for MIC: Enterococcus faecalis, ATCC19433, Str. faecalis; for Antimicrobial activity (MIC): Str. faecalis
Procedure: as §1

Compound	melting point [°C]	Antimicrobial activity (MIC) (E. coli., NIHJ) [µg/mL]	Antimicrobial activity (MIC) (Pr. vulgaris, 08601) [µg/mL]	MIC (Ps. aeruginosa, 32104) [µg/mL]	MIC (Ps. aeruginosa, 32121) [µg/mL]	MIC (S. aureus, 209 P) [µg/mL]	MIC (S. epidermidis, 56500) [µg/mL]	MIC (Ser. marcescens, 10100) [µg/mL]	MIC [1] [µg/mL]	MIC (E. coli., NIHJ) [µg/mL]	MIC (Pr. vulgaris, 08601) [µg/mL]	Antimicrobial activity (MIC) (Ps. aeruginosa, 32104) [µg/mL]	Antimicrobial activity (MIC) (Ps. aeruginosa, 32121) [µg/mL]	Antimicrobial activity (MIC) (S. aureus, 209 P) [µg/mL]	Antimicrobial activity (MIC) (S. epidermidis, 56500) [µg/mL]	Antimicrobial activity (MIC) (Ser. marcescens, 10100) [µg/mL]	Antimicrobial activity (MIC) [1] [µg/mL]
Cc1c(N2CC[C@@H]([C@H](C)N)C2)c(F)cc2c(=O)c(C(=O)O)cn(C3CC3F)c12 (single isomer, unassigned; (-)) (as salt: hydrochloride) [Compound 54b]	149 to 153																
NC1CN(c2c(F)cc3c(=O)c(C(=O)O)cn(C4CC4F)c3c2Cl)CC12CC2 (single isomer, unassigned) [Compound 26aa]		<0.1	<0.1	0.39 (≈ 0.952 µM)	0.1 (≈ 0.244 µM)	< 0.1	0.2 (≈ 0.488 µM)	0.1 (≈ 0.244 µM)	0.39 (≈ 0.952 µM)								
C[C@H](N)[C@@H]1CCN(c2c(F)cc3c(=O)c(C(=O)O)cn(C4CC4F)c3c2Cl)C1 (single isomer, unassigned; (-)) [Compound 34b]	204 to 207			0.1 (≈ 0.243 µM)	< 0.1	< 0.1	< 0.1	< 0.1	< 0.1	< 0.1	< 0.1						
(+)-5-Amino-7-[3-(S)-amino-1-pyrrolidinyl]-6,8-difluoro-1-(1,2-cis-2-fluoro-1-cyclopropyl)-4-oxo-1,4-dihydroquinoline-3-carboxylic acid [Compound 18b]		<0.1	<0.1									<0.1	<0.1	<0.1	<0.1	<0.1	0.10
NC1CN(c2c(F)cc3c(=O)c(C(=O)O)cn(C4CC4F)c3c2Cl)CC12CC2 (single isomer, unassigned) [Compound 26ab]		<0.1	<0.1									0.20	<0.1	<0.1	0.10	<0.1	0.20
CC1(C)CN(c2c(F)cc3c(=O)c(C(=O)O)cn([C@@H]4C[C@@H]4F)c3c2Cl)CC1N (single isomer, unassigned; (-)) [Compound 59b]	118 to 121			0.2 (≈ 0.486 µM)	< 0.1	< 0.1	< 0.1	< 0.1	0.1 (≈ 0.243 µM)	< 0.1	< 0.1						
NC1CN(c2c(F)cc3c(=O)c(C(=O)O)cn(C4CC4F)c3c2Cl)CC12CC2 (stereo not shown) [Compound 26ba]										< 0.1	< 0.1	0.20	0.10	<0.1	0.20	<0.1	0.39
NC1CN(c2c(F)cc3c(=O)c(C(=O)O)cn([C@@H]4C[C@@H]4F)c3c2Cl)CC12CC2 (relative stereo) [Compound 26bb, (−)-7-(7-Amino-5-azaspiro[2.4]heptan-5-yl)-8-chloro-6-fluoro-1-(1,2-cis-2-fluoro-1-cylcopropyl)-1,4-dihydro-4-oxoquinoline-3-carboxylic acid]		<0.1	<0.1									<0.1	<0.1	<0.1	<0.1	<0.1	0.20
NC1CN(c2c(F)cc3c(=O)c(C(=O)O)cn([C@@H]4C[C@@H]4F)c3c2Cl)CC12CCC2 (relative stereo) [Compound 58b, (−)-7-(8-amino-6-azaspiro[3.4]octane-6-yl)-8-chloro-6-fluoro-1-(1,2-cis-2-fluoro-1-cyclopropyl)-1,4-dihydro-4-oxoquinoline-3-carboxylic acid]		<0.1	<0.1									0.10	<0.1	<0.1	<0.1	<0.1	<0.1
